# Data: patent publication US10098879B2 (priority 2015, dated 2018)
# Assays:
# Ebola virus (EBOV) = conditions: human, in vivo
# Ebola virus = conditions: mouse, in vivo, 150 mg/kg; cited from earlier work
smiles,measurement,setting,value
"NC(=O)c1nc(F)cnc1O [Favipiravir, 6-fluoro-3-hydroxy-2-pyrazinecarboxamide]","Effect on survival, patients with CT<20",Ebola virus (EBOV),no indication that favipiravir monotherapy improved survival
same,"Mortality (participants died), baseline CT <20",Ebola virus (EBOV),85%
same,"Mortality (participants died), baseline CT ≥20",Ebola virus (EBOV),15%
same,Mortality in patients with abnormal baseline creatinine values and BCT<20,Ebola virus (EBOV),100%
same,Mortality in patients with abnormal baseline creatinine values and BCT≥20,Ebola virus (EBOV),7%
same,"Mortality rate versus pre-trial figures, patients with CT≥20",Ebola virus (EBOV),lower mortality rate compared to pre-trial figures
same,"Mortality (participants died), overall",Ebola virus (EBOV); po,48%
same,Tolerance of the drug,Ebola virus (EBOV); po,well tolerated
same,Biochemical parameters of disease severity,Ebola virus,reduced biochemical parameters of disease severity
same,Survival,Ebola virus,100%
same,Virus clearance,Ebola virus,rapid virus clearance
